Measured values: publication PMC3347614 (Acta Naturae, 2011)
Entries after “also recorded” stand apart in the source; their conditions may differ.

The compounds below were run against T1, DNA gyrase (Escherichia coli, UniProt P0AES4+P0AES6) (assay: Inhibition of DNA gyrase supercoiling of relaxed plasmid pBR322 (agarose gel electrophoresis)). Details: qualitative statement.
T1 construct: His6 (N); made in house; host or cells: Escherichia coli Rosetta (DE3)
Type: biochemical, E. coli
Procedure: The reaction mixture (30 µl) contained 35 mM Tris-HCl (pH 7.5), 24 mM KCl, 4 mM MgCl 2 , 1.4 mM ATP, 5 mM DTT, 1.8 mM spermidine, and 0.1 mg/ml of a bovine serum albumin. A mixture of DNA gyrase A and B subunits (0.4 µg) and 0.25–0.5 µg of the substrate (relaxed plasmid pBR322) were added to the reaction probe. The reaction was performed for 60 min at 25°C (for multiple samples, 96-well plates were used). After the reaction was completed, the samples were extracted with an equal volume of chloroform (30 µl). Then, 7 µl of the mixture containing […], 25% of glycerol, and 0.25% of bromphenol blue were added to the aqueous phase. The mixture was applied on a 1.2% agarose gel in TAE buffer (40 mM Tris-acetate, pH 8.0, 2 mM EDTA) and analyzed with electrophoresis (50 V, 2 h). The products were visualized under UV-light after staining with ethidium bromide. The activity of the enzyme (%) was determined from the intensity of the band corresponding to the super-coiled form of plasmid pBR322 and estimated using the Total Lab v2.01 software.
An equal volume of DMSO was added to the control. The reaction was started upon addition of DNA gyrase (0.4 µg) and relaxed plasmid pBR322 (0.25–0.5 µg), which was used as a substrate, and performed as described above. Calculations were made using the Total Lab v2.01 program.

T1 sequence (P0AES4 whole entry, one chain of several): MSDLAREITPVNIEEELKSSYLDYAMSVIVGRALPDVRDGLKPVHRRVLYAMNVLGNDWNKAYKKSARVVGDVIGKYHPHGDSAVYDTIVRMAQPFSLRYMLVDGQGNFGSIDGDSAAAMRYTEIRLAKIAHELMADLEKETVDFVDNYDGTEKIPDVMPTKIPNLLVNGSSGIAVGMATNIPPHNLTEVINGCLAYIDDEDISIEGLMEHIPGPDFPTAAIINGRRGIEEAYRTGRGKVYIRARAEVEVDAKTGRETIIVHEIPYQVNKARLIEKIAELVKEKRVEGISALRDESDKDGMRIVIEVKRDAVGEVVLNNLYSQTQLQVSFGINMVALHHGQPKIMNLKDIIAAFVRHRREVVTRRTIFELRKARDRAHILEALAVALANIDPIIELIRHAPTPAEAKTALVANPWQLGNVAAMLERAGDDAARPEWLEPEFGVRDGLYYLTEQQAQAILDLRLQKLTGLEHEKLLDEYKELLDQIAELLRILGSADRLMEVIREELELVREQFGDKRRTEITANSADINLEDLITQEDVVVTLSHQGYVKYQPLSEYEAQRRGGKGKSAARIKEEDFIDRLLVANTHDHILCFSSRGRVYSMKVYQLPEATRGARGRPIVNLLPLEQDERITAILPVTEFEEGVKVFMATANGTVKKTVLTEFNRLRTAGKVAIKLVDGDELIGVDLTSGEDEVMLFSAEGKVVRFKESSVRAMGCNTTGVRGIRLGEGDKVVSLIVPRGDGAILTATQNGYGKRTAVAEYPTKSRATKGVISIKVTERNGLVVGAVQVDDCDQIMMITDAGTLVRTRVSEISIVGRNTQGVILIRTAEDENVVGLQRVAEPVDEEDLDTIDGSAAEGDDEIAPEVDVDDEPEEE

SMILES	Inhibitory activity towards DNA gyrase, in words
CC1COc2c(ccc(F)c2F)N1 (racemic) [IOS-RS, (R,S)-7,8-Difluoro-3-methyl-2,3-dihydro-4H-benzo[b][1, 4]-oxazine]	no significant activity
CCOC(=O)c1cn2c3c(c(F)c(F)cc3c1=O)OC[C@@H]2C [IOS-E, Ethyl ester of (3S)-(-)-9,10-difluoro-3-methyl-7-oxo-2,3-dihydro-7H-pyrido[1,2,3-d,e][1, 4]-benzoxazine-6-carboxylic acid]	no significant activity; also recorded: practically inactive
C[C@H]1COc2c(F)c(F)cc3c(=O)c(C(=O)O)cn1c23 [IOS-K, (3S)-(-)-Difluoro-3-methyl-7-oxo-2,3-dihydro-7H-pyrido[1,2,3-d,e][1, 4]-benzoxazine-6-carboxylic acid]	significant inhibitory activity
CCn1cc(C(=O)O)c(=O)c2cc(F)c(N3CCNCC3)cc21 [IOS-NORFL_01, norfloxacin, reference compound]	poor inhibitor
C[C@H]1COc2c(ccc(F)c2F)N1 [IOS-S, (3S)-2,3-Dihydro-3-methyl-7,8-difluoro-1,4-benzoxazine]	no significant activity

Same assay, conditions: relative to levofloxacin, in words

SMILES	Activity towards DNA gyrase compared with that of levofloxacin
CN1C2=Nn3cc(C(=O)O)c(=O)c4c(F)c(F)c(N5CCCC5)c(c43)N2c2cc(F)c(F)cc21 [EV-465]	two orders of magnitude
C[C@H]1COc2c(F)c(F)cc3c(=O)c(C(=O)O)cn1c23 [IOS-K, (3S)-(-)-Difluoro-3-methyl-7-oxo-2,3-dihydro-7H-pyrido[1,2,3-d,e][1, 4]-benzoxazine-6-carboxylic acid]	lower by an order of magnitude

Same assay, conditions: relaxed pBR322, 60 min, 25°C

SMILES	I50 (inhibition activity towards DNA gyrase)
CCOC(=O)c1cn2c3c(c(F)c(F)cc3c1=O)OC(c1cccnc1)=N2 [EV-313-D]	EV-313-D Inactive
O=C(O)c1cn2c3c(c(N4CCCC4)c(F)cc3c1=O)OC(c1cccc([N+](=O)[O-])c1)=N2 [EV-452-D]	EV-452-D Inactive
O=C(O)c1cn2c3c(c(N4CCOCC4)c(F)cc3c1=O)SC(NC1CCCCC1)=N2 [EV-572]	EV-572 Inactive
O=C(O)c1cn2c3c(c(F)c(F)cc3c1=O)NC(c1ccccc1)=N2 [EV-591]	EV-591 Inactive
O=C(C(=C1Nc2ccccc2N1)c1nc(=O)c2cc(F)c(F)c(F)c2s1)c1ccccc1 [EV-N51-B]	EV-N51-B Inactive
O=c1nc(Nc2ncccn2)sc2c(F)c(F)c(F)cc12 [EV-N119-2]	EV-N119-2 Inactive
O=c1[nH]c(N/N=C/c2ccccc2O)nc2c(F)c(N3CCCC3)c(F)cc12 [EV-T143-B]	EV-T143-B Inactive
Oc1ccccc1/C=N\Nc1nc(-c2ccccc2)nc2cccc(F)c12 [EV-T150-C]	EV-T150-C Inactive
O=c1c2cc(F)c(F)cc2nc(/C=C/c2ccccc2O)n1-c1ccccc1 [EV-T156]	EV-T156 Inactive
CCSc1nc(Nc2ccc(F)c(F)c2)c2cc(F)c(F)c(F)c2n1 [EV-X58-A]	EV-X58-A Inactive
CC(C)(C)c1cc(-n2c(-c3ccccc3)nc3cc(F)c(F)cc3c2=O)no1 [EV-X149]	EV-X149 Inactive

Same assay, conditions: relaxed pBR322, 60 min, 25°C; read-out: I50 (inhibition activity towards DNA gyrase)

SMILES	IC50
CN1C2=Nn3cc(C(=O)O)c(=O)c4c(F)c(F)c(N5CCCC5)c(c43)N2c2cc(F)c(F)cc21 [EV-465]	> 63.4 µM
